Format in all cases: biochemical
One test deals with T1, p38d MAPK (Homo sapiens, UniProt O15264).
T1 sequence (O15264 1-365): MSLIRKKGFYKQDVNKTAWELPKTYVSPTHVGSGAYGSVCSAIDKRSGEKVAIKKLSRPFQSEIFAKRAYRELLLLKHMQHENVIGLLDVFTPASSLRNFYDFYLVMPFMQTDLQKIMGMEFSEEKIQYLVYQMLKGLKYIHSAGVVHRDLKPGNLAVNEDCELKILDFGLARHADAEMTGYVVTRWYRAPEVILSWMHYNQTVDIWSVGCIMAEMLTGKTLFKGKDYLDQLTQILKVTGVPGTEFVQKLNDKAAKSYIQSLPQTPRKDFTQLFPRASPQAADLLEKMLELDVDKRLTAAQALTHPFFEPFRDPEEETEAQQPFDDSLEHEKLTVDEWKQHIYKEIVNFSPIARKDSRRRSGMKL
Description: Kinase profiling p38d MAPK. Conditions: for residual kinase activity, p38d MAPK: 100 micromolar inhibitor concentration, 100 is no change. The source says:
(§1) Any value less that 25 is considered to be highly significant inhibition.

The next test concerns the target PKBb (Homo sapiens, UniProt P31751). The test can be described thus: Kinase profiling PKBb. The following applies: for residual kinase activity, PKBb: 100 micromolar inhibitor concentration, 100 is no change.
From the text: as §1

The next test deals with MARK3 (Homo sapiens, UniProt P27448). The test can be described thus: Kinase profiling MARK3. The following applies: for residual kinase activity, MARK3: 100 micromolar inhibitor concentration, 100 is no change.
Chain of MARK3 (P27448 whole entry, species assumed): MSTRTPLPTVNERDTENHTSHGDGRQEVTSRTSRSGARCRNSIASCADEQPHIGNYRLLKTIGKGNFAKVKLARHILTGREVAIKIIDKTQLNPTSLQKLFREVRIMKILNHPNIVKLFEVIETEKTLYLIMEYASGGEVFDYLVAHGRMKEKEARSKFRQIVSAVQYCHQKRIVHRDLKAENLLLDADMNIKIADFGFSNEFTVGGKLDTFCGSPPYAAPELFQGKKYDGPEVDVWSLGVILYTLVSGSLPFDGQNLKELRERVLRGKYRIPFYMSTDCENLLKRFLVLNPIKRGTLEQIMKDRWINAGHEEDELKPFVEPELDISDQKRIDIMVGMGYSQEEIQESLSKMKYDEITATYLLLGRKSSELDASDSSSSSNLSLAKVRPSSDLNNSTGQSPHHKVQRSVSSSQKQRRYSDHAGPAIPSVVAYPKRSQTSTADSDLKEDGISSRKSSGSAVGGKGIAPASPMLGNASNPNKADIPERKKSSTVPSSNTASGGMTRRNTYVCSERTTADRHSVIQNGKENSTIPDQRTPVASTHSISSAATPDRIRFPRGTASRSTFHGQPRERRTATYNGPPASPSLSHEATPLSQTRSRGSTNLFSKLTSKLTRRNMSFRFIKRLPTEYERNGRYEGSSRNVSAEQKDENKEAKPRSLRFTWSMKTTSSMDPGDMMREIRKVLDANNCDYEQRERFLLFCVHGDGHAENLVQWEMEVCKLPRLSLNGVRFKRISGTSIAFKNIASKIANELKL
From the text: as §1

In a further test the target is RSK2 (Homo sapiens, UniProt P51812). The test can be described thus: Kinase profiling RSK2. The following applies: for residual kinase activity, RSK2: 100 micromolar inhibitor concentration, 100 is no change.
From the text: as §1

For a further test, the target named is T2, MST2 (Homo sapiens, UniProt Q13188).
T2 sequence (Q13188 1-491): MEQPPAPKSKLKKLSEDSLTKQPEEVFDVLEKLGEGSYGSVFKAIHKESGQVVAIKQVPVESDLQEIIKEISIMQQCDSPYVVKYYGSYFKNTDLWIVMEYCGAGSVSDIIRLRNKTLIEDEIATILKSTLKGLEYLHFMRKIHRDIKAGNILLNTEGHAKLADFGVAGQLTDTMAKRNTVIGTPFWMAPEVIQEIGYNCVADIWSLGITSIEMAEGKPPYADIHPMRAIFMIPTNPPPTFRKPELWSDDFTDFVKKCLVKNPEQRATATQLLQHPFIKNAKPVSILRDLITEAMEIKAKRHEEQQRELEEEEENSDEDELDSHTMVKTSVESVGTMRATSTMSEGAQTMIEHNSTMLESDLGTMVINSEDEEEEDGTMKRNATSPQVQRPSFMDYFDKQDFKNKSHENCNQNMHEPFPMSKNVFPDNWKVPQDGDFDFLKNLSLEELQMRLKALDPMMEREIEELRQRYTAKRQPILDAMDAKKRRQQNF
Description: Kinase profiling MST2. The following applies: for residual kinase activity, MST2: 100 micromolar inhibitor concentration, 100 is no change.
From the text: as §1

For the next test, the target named is CAMK1 (Homo sapiens, UniProt Q14012). Description: Kinase profiling CAMK1. The following applies: for residual kinase activity, CAMK1: 100 micromolar inhibitor concentration, 100 is no change.
From the text: as §1

The target of another test is MLK3 (Homo sapiens, UniProt Q16584). The test can be described thus: Kinase profiling MLK3. Conditions: for residual kinase activity, MLK3: 100 micromolar inhibitor concentration, 100 is no change.
Chain of MLK3 (Q16584 whole entry, species assumed): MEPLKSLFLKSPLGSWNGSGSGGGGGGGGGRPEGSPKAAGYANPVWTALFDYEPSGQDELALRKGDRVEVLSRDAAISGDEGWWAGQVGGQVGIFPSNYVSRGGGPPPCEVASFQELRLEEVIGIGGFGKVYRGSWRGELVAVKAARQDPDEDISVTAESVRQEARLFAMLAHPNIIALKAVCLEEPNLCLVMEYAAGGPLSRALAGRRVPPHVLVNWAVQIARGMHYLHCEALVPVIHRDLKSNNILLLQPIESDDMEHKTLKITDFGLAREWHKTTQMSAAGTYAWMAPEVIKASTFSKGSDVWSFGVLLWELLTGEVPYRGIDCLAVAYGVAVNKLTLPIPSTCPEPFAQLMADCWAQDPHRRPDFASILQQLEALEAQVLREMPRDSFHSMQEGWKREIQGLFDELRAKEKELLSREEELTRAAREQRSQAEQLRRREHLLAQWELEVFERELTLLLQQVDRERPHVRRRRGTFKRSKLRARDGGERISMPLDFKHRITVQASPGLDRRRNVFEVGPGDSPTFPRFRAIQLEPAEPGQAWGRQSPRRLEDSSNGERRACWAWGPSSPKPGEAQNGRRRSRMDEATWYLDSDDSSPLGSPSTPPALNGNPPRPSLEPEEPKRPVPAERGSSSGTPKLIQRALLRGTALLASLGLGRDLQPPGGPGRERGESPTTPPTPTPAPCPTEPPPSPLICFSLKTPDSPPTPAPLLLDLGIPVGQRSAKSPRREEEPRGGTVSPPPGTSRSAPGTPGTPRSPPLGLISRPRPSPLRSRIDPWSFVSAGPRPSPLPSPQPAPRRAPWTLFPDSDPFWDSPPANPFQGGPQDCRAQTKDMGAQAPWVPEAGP
From the text: as §1

The target in the next test is T3, IRAK4 (Homo sapiens, UniProt Q9NWZ3).
T3 sequence (Q9NWZ3 1-460): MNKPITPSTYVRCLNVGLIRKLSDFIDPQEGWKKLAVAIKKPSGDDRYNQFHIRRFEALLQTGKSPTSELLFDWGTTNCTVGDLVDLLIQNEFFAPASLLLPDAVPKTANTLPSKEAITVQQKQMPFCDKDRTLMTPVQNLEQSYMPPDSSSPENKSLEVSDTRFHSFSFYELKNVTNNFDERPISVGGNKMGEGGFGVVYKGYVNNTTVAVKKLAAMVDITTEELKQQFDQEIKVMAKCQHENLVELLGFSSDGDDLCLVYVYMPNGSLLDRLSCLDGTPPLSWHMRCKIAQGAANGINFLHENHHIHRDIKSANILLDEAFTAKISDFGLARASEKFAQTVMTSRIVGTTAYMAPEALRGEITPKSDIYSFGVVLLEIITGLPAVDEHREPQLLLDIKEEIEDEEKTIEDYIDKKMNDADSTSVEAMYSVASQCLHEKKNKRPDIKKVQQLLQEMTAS
Description: Kinase profiling IRAK4. The following applies: for residual kinase activity, IRAK4: 100 micromolar inhibitor concentration, 100 is no change.
From the text: as §1

Another test has as its target p38a MAPK (Homo sapiens, UniProt Q16539). The test can be described thus: Kinase profiling p38a MAPK. The following applies: for residual kinase activity, p38a MAPK: 100 micromolar inhibitor concentration, 100 is no change.
From the text: as §1

The target in a further test is SYK (Homo sapiens, UniProt P43405). The test can be described thus: Kinase profiling SYK. Conditions: for residual kinase activity, SYK: 100 micromolar inhibitor concentration, 100 is no change.
From the text: as §1

The target in the next test is SmMLCK (Homo sapiens, UniProt Q15746). The test can be described thus: Kinase profiling SmMLCK. Conditions: for residual kinase activity, SmMLCK: 100 micromolar inhibitor concentration, 100 is no change.
Chain of SmMLCK (Q15746 923-1914): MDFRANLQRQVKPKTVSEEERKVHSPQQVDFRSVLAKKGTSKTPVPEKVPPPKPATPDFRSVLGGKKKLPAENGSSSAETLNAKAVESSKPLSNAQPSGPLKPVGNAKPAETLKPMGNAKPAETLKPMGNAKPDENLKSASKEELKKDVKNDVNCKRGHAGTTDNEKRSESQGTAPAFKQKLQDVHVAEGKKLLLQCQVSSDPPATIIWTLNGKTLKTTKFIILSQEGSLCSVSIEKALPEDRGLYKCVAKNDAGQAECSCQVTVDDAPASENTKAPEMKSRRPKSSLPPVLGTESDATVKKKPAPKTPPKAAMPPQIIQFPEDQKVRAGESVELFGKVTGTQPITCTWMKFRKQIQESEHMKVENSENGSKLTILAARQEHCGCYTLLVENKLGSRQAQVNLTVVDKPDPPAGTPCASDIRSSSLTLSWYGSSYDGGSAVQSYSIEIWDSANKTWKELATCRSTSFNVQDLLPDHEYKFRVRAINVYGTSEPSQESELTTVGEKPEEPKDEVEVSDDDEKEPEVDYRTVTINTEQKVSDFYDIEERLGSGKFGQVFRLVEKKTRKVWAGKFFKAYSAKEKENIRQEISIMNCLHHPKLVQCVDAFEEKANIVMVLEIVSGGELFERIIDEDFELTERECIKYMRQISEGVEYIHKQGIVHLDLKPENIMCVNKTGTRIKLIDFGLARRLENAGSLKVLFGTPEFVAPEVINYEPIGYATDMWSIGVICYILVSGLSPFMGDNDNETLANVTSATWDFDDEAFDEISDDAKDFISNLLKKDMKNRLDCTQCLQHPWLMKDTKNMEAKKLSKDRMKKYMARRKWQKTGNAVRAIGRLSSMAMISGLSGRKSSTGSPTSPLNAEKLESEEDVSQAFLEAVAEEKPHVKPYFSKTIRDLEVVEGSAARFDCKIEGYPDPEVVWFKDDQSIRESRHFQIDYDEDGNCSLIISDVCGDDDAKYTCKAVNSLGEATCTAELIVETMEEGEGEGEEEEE
The next test addresses MSK1 (Homo sapiens, UniProt O75582). The test can be described thus: Kinase profiling MSK1. The following applies: for residual kinase activity, MSK1: 100 micromolar inhibitor concentration, 100 is no change.
From the text: as §1

The next test concerns the target ERK1 (Homo sapiens, UniProt P27361). The test can be described thus: Kinase profiling ERK1. The following applies: for residual kinase activity, ERK1: 100 micromolar inhibitor concentration, 100 is no change.
From the text: as §1

A further test addresses NEK6 (Homo sapiens, UniProt Q9HC98). The test can be described thus: Kinase profiling NEK6. Conditions: for residual kinase activity, NEK6: 100 micromolar inhibitor concentration, 100 is no change.
From the text: as §1

The target of another test is PAK4 (Homo sapiens, UniProt O96013). Description: Kinase profiling PAK4. Conditions: for residual kinase activity, PAK4: 100 micromolar inhibitor concentration, 100 is no change.
Chain of PAK4 (O96013 whole entry, species assumed): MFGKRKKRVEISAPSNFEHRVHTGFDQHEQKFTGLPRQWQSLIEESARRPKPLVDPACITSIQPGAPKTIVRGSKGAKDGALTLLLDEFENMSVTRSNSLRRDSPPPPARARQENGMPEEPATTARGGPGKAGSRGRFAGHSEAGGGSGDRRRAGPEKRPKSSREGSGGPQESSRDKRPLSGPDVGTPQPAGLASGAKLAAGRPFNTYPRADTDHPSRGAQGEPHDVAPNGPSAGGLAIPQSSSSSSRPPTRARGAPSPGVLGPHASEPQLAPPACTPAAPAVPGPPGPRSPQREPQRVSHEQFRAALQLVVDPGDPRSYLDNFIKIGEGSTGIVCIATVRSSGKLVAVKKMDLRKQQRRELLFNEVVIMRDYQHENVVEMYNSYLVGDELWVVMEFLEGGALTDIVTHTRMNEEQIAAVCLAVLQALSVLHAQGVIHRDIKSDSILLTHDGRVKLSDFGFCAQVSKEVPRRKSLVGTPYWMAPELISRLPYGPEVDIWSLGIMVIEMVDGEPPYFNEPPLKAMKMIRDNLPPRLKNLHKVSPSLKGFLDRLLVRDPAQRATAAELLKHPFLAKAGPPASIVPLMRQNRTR
From the text: as §1

The target of a further test is T4, TBK1 (Homo sapiens, UniProt Q9UHD2).
T4 sequence (Q9UHD2 1-729): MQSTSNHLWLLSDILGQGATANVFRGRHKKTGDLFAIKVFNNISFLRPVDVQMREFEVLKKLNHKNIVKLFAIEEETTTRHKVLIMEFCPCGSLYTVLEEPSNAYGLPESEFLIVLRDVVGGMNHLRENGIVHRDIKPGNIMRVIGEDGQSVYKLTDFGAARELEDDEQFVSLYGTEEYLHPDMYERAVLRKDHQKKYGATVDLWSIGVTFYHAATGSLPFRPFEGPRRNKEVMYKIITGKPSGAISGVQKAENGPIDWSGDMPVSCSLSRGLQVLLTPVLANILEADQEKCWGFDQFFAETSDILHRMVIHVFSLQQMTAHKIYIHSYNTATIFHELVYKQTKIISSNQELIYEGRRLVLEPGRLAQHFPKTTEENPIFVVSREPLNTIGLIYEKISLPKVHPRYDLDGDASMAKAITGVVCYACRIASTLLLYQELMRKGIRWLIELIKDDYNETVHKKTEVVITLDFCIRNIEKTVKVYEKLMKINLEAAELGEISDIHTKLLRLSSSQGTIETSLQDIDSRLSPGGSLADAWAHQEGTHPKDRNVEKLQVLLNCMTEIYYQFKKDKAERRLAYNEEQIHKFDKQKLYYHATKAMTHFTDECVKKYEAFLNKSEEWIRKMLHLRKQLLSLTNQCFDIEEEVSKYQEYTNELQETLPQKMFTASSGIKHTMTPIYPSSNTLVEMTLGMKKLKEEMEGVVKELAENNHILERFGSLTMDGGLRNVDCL
Description: Kinase profiling TBK1. Conditions: for residual kinase activity, TBK1: 100 micromolar inhibitor concentration, 100 is no change.
From the text: as §1

Chain of MSK1 (O75582 whole entry, species assumed): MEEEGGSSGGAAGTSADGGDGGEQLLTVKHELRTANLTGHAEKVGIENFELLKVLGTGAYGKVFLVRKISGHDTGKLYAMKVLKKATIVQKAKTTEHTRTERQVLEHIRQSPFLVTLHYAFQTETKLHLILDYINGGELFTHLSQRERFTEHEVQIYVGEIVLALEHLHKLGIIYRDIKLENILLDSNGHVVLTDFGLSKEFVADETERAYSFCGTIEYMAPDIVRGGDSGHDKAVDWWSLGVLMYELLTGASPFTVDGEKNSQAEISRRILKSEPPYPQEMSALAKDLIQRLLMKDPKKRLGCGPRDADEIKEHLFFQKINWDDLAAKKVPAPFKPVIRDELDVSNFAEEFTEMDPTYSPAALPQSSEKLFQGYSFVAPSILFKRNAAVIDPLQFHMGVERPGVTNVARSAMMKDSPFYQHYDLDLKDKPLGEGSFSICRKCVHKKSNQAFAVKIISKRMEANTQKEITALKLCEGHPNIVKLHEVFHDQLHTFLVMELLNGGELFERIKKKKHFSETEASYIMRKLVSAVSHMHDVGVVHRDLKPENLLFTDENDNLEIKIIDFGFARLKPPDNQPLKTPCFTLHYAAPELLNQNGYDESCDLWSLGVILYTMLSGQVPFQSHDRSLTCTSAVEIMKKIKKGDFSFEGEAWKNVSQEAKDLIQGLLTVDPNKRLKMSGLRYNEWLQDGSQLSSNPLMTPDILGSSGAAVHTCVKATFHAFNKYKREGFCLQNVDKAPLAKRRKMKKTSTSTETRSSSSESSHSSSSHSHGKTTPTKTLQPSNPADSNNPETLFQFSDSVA
Chain of p38a MAPK (Q16539 whole entry): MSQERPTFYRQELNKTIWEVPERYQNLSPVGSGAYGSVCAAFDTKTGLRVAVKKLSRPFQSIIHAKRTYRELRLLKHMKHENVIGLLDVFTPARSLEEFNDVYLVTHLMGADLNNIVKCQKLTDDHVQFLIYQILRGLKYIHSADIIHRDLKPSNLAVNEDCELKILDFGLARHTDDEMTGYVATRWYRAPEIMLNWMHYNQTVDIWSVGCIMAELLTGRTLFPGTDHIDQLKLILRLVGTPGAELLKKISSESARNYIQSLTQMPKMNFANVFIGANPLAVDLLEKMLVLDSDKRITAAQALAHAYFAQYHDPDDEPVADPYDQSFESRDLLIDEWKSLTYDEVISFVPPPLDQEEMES
Chain of NEK6 (Q9HC98 whole entry, species assumed): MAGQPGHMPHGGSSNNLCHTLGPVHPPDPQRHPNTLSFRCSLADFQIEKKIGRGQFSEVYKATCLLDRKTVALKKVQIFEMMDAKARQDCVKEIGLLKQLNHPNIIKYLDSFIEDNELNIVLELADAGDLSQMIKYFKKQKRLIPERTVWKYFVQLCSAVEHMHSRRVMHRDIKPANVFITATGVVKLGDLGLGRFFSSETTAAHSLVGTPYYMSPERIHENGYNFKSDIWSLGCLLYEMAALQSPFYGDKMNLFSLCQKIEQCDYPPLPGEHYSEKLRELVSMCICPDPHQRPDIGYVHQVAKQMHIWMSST
Chain of ERK1 (P27361 whole entry, species assumed): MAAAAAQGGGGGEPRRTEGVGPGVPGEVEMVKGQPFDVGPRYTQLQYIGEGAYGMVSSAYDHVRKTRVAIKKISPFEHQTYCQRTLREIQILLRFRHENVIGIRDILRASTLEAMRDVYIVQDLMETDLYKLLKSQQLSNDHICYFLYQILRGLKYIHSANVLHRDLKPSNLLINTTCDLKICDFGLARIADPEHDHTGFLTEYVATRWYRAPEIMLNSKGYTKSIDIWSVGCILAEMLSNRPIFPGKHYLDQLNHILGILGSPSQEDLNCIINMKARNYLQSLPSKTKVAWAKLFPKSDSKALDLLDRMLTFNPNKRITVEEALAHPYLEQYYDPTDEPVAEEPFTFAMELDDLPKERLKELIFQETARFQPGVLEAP

Consider `CC(=O)Nc1cccc(NC(=O)c2nc3ccc(O)cc3s2)c1` [Compound 03-07, N-(3-acetamidophenyl)-6-hydroxybenzo[d]thiazole-2-carboxamide], for which the remaining activity at 100 µM on p38d MAPK (100 micromolar inhibitor, 100 = no change, read-out: residual kinase activity, p38d MAPK) was 81%; on PKBb (100 micromolar inhibitor, 100 = no change, read-out: residual kinase activity, PKBb) it was 26%; at MARK3 (100 micromolar inhibitor, 100 = no change, read-out: residual kinase activity, MARK3), 72%; on RSK2 (100 micromolar inhibitor, 100 = no change, read-out: residual kinase activity, RSK2) it was 71%; at MST2 (100 micromolar inhibitor, 100 = no change, read-out: residual kinase activity, MST2), 68%; at CAMK1 (100 micromolar inhibitor, 100 = no change, read-out: residual kinase activity, CAMK1), 44%. In addition, the remaining activity at 100 µM at MLK3 (100 micromolar inhibitor, 100 = no change, read-out: residual kinase activity, MLK3) was 39%; on IRAK4 (100 micromolar inhibitor, 100 = no change, read-out: residual kinase activity, IRAK4), 74%; on p38a MAPK (100 micromolar inhibitor, 100 = no change, read-out: residual kinase activity, p38a MAPK), 93%; on SYK (100 micromolar inhibitor, 100 = no change, read-out: residual kinase activity, SYK) it was 102%; on SmMLCK (100 micromolar inhibitor, 100 = no change, read-out: residual kinase activity, SmMLCK) it was 21%; at MSK1 (100 micromolar inhibitor, 100 = no change, read-out: residual kinase activity, MSK1), 62%. In addition, the remaining activity at 100 µM at ERK1 (100 micromolar inhibitor, 100 = no change, read-out: residual kinase activity, ERK1) came to 102%; on NEK6 (100 micromolar inhibitor, 100 = no change, read-out: residual kinase activity, NEK6), 91%; at PAK4 (100 micromolar inhibitor, 100 = no change, read-out: residual kinase activity, PAK4) it was 92%; on TBK1 (100 micromolar inhibitor, 100 = no change, read-out: residual kinase activity, TBK1), 92%.

Turning to `O=C(Nc1nc2cc(O)ccc2s1)c1ccncc1` [Compound 03-11], at p38d MAPK, the “residual kinase activity, p38d MAPK” value was 82. Moreover, on PKBb, the “residual kinase activity, PKBb” value came out at 82. For the same molecule, the “residual kinase activity, MARK3” value on MARK3 is given as 75. On RSK2, the “residual kinase activity, RSK2” value amounted to 71. The “residual kinase activity, MST2” value at MST2 is 84. For the same molecule, the “residual kinase activity, CAMK1” value at CAMK1 was determined as 85. The “residual kinase activity, MLK3” value on MLK3 came to 95. The “residual kinase activity, IRAK4” value on IRAK4 is reported as 69. Also, the “residual kinase activity, p38a MAPK” value at p38a MAPK is reported as 106. The “residual kinase activity, SYK” value at SYK is on record as 75. For the same molecule, the “residual kinase activity, SmMLCK” value on SmMLCK was found to be 63. Moreover, the “residual kinase activity, MSK1” value on MSK1 is reported as 97. Besides, the “residual kinase activity, ERK1” value at ERK1 is on record as 88. The “residual kinase activity, NEK6” value at NEK6 worked out at 72. The “residual kinase activity, PAK4” value on PAK4 is 73. For the same molecule, the “residual kinase activity, TBK1” value on TBK1 was found to be 80.

For `O=C(Nc1nc2ccc(O)cc2s1)c1ccccn1` [Compound 03-12], the “residual kinase activity, p38d MAPK” value on p38d MAPK came to 77. Besides, the “residual kinase activity, PKBb” value at PKBb worked out at 61. Besides, the “residual kinase activity, MARK3” value at MARK3 amounted to 79. The “residual kinase activity, RSK2” value at RSK2 was found to be 53. Besides, the “residual kinase activity, MST2” value at MST2 is given as 61. At CAMK1, the “residual kinase activity, CAMK1” value came out at 47. For the same molecule, the “residual kinase activity, MLK3” value at MLK3 was 46. The “residual kinase activity, IRAK4” value at IRAK4 is on record as 54. Besides, the “residual kinase activity, p38a MAPK” value on p38a MAPK was 107. Further, the “residual kinase activity, SYK” value on SYK came to 99. For the same molecule, the “residual kinase activity, SmMLCK” value on SmMLCK came out at 9. The “residual kinase activity, MSK1” value at MSK1 amounted to 90. Further, on ERK1, the “residual kinase activity, ERK1” value stood at 74. Further, the “residual kinase activity, NEK6” value at NEK6 came out at 98. Moreover, on PAK4, the “residual kinase activity, PAK4” value came to 87. Besides, the “residual kinase activity, TBK1” value on TBK1 was determined as 68.

With `O=C(Nc1nc2cc(O)ccc2s1)c1ccccn1` [Compound 03-13], at p38d MAPK, the “residual kinase activity, p38d MAPK” value is 99. Moreover, the “residual kinase activity, PKBb” value at PKBb amounted to 60. Further, at MARK3, the “residual kinase activity, MARK3” value came to 68. In addition, the “residual kinase activity, RSK2” value on RSK2 is on record as 72. Moreover, the “residual kinase activity, MST2” value at MST2 came to 60. Further, the “residual kinase activity, CAMK1” value on CAMK1 was 111. On MLK3, the “residual kinase activity, MLK3” value was 57. Moreover, on IRAK4, the “residual kinase activity, IRAK4” value stood at 55. On p38a MAPK, the “residual kinase activity, p38a MAPK” value was found to be 96. Moreover, on SYK, the “residual kinase activity, SYK” value was 106. Further, the “residual kinase activity, SmMLCK” value on SmMLCK is on record as 37. Further, the “residual kinase activity, MSK1” value on MSK1 worked out at 100. The “residual kinase activity, ERK1” value at ERK1 came out at 97. The “residual kinase activity, NEK6” value at NEK6 is given as 107. For the same molecule, on PAK4, the “residual kinase activity, PAK4” value is listed as 115. The “residual kinase activity, TBK1” value at TBK1 is 73.

(Values after US10231954B2, “Neurodegenerative therapies” (LYTIX BIOPHARMA AS, priority 2014, dated 2019).)
